Reference: patent publication US8735375B2, “Therapeutic compositions” (Leo Laboratories Limited, priority 2005, dated 2014)

Assay: Stability of I3A isoforms in the assay solvent systems over 72 h
Format: physicochemical
Protocol: The stability of […] isoforms 'a', 'b' and 'c' in the three sample systems over 72 h (equivalent to the maximum possible length of time the samples might be held in the autosampler during a long HPLC analytical run) was confirmed as follows. Standards of the three isoforms of […] The standards were then each divided into three equal volumes and placed at 2-8° C., room temperature and 40° C. for 72 h and were then again analysed by HPLC.

[1] = Acetonitrile/Citrate buffer (pH 3), 72 h 2-8° C.
[2] = Acetonitrile/Citrate buffer (pH 3), 72 h 40° C.
[3] = Acetonitrile/Citrate buffer (pH 3), 72 h RTP
[4] = Acetonitrile/Citrate buffer (pH 3), Time 0 h
[5] = Acetonitrile/Sodium acetate buffer (pH 4.5), 72 h 2-8° C.
[6] = Acetonitrile/Sodium acetate buffer (pH 4.5), 72 h 40° C.
[7] = Acetonitrile/Sodium acetate buffer (pH 4.5), 72 h RTP
[8] = Acetonitrile/Sodium acetate buffer (pH 4.5), Time 0 h

## CC=C(C)C(=O)OC1C(CO)=CC2C(=O)C3(C=C(C)C(O)C13O)C(C)CC1C2C1(C)C (stereo not drawn) [Isoform ‘a’, ingenol-5-angelate]
Acetonitrile, 72 h 2-8° C.
  % ‘a’: 90.63%
  % ‘b’: 5.71%
  % ‘c’: 2.55%
Acetonitrile, 72 h 40° C.
  % ‘a’: 16.36%
  % ‘b’: 47.01%
  % ‘c’: 35.74%
Acetonitrile, 72 h RTP
  % ‘a’: 86.58%
  % ‘b’: 7.8%
  % ‘c’: 3.65%
Acetonitrile, Time 0 h
  % ‘a’: 96.82%
  % ‘b’: 2.24%
  % ‘c’: 0.29%
[1]
  % ‘a’: 98.31%
  % ‘b’: 1.46%
  % ‘c’: 0%
[2]
  % ‘a’: 98.13%
  % ‘b’: 1.79%
  % ‘c’: 0%
[3]
  % ‘a’: 98.84%
  % ‘b’: 1.08%
  % ‘c’: 0%
[4]
  % ‘a’: 97.91%
  % ‘b’: 1.63%
  % ‘c’: 0%
[5]
  % ‘a’: 96.47%
  % ‘b’: 2.83%
  % ‘c’: 0%
[6]
  % ‘a’: 82.51%
  % ‘b’: 16.62%
  % ‘c’: 0%
[7]
  % ‘a’: 95.25%
  % ‘b’: 4.22%
  % ‘c’: 0%
[8]
  % ‘a’: 96.65%
  % ‘b’: 2.16%
  % ‘c’: 0.23%

## CC=C(C)C(=O)OCC1=CC2C(=O)C3(C=C(C)C(O)C3(O)C1O)C(C)CC1C2C1(C)C (stereo not drawn) [Isoform ‘c’, ingenol-20-angelate]
Acetonitrile, 72 h 2-8° C.
  % ‘a’: 1.62%
  % ‘b’: 0%
  % ‘c’: 96.69%
Acetonitrile, 72 h 40° C.
  % ‘a’: 0.6%
  % ‘b’: 0%
  % ‘c’: 97.09%
Acetonitrile, 72 h RTP
  % ‘a’: 1.55%
  % ‘b’: 0.27%
  % ‘c’: 97.19%
Acetonitrile, Time 0 h
  % ‘a’: 1.28%
  % ‘b’: 0.41%
  % ‘c’: 97.30%
[1]
  % ‘a’: 0.87%
  % ‘b’: 0.16%
  % ‘c’: 98.84%
[2]
  % ‘a’: 0%
  % ‘b’: 0%
  % ‘c’: 98.7%
[3]
  % ‘a’: 0.53%
  % ‘b’: 0%
  % ‘c’: 99.24%
[4]
  % ‘a’: 1.12%
  % ‘b’: 0.20%
  % ‘c’: 98.41%
[5]
  % ‘a’: 1.41%
  % ‘b’: 0.27%
  % ‘c’: 97.17%
[6]
  % ‘a’: 0%
  % ‘b’: 0%
  % ‘c’: 97.75%
[7]
  % ‘a’: 0.83%
  % ‘b’: 0%
  % ‘c’: 97.97%
[8]
  % ‘a’: 1.34%
  % ‘b’: 0.45%
  % ‘c’: 97.02%
